Results on 6 molecules are retold here after ChEMBL document CHEMBL1139128, “Structure-activity relationship analysis of a novel necroptosis inhibitor, Necrostatin-5” (Bioorg Med Chem Lett, 2007).

Each structure is given as a SMILES string. Calls of active or inactive are those of the source. The rule behind the calls is not given here.

This assay relates to Jurkat. Nature of the assay: Inhibition of TNF-alpha-induced necroptosis in FADD-deficient Jurkat T cells. Also on record: concentration or dose not given beside the values. The assay is classed as functional, cell-based. The note with it: Homo sapiens.
In the case of `COc1ccc(-n2c(SCC(C)=O)nc3sc4c(c3c2=O)CCC4)cc1`, the outcome was inactive.

As to `CCSc1nc2sc3c(c2c(=O)n1-c1ccc(OC)cc1)CCC3`, the outcome was inactive.

As to `CSc1nc2sc(C)c(C)c2c(=O)n1-c1ccc(C)c(C)c1`, the result was inactive.

Turning to `CCSc1nc2sc3c(c2c(=O)n1-c1ccc(OC)cc1)CCCC3`, the result was inactive.

`CCOc1ccc(-n2c(SCC#N)nc3sc4c(c3c2=O)CCC4)cc1`: the result was inactive.

For `C=CCSc1nc2sc3c(c2c(=O)n1-c1ccccc1)CCCC3`, the result was inactive.
